Laboratory results published in ChEMBL document CHEMBL1144194, “Initial SAR studies on apamin-displacing 2-aminothiazole blockers of calcium-activated small conductance potassium channels” (Bioorg Med Chem Lett, 2008).
Calls of active or inactive are those of the source. The calls are words filed in the database; no cut-off is given here. Peptide text beside a SMILES is read from it.

What was measured:
[1] = molecular target: T1, Small conductance calcium-activated potassium channel protein 3 (Homo sapiens, UniProt Q9UGI6); assay: Inhibition of Kca2.3 channel expressed in HEK293 cells at 30 uM by thallium flux assay; type: cell-based
T1 sequence (Q9UGI6 whole entry): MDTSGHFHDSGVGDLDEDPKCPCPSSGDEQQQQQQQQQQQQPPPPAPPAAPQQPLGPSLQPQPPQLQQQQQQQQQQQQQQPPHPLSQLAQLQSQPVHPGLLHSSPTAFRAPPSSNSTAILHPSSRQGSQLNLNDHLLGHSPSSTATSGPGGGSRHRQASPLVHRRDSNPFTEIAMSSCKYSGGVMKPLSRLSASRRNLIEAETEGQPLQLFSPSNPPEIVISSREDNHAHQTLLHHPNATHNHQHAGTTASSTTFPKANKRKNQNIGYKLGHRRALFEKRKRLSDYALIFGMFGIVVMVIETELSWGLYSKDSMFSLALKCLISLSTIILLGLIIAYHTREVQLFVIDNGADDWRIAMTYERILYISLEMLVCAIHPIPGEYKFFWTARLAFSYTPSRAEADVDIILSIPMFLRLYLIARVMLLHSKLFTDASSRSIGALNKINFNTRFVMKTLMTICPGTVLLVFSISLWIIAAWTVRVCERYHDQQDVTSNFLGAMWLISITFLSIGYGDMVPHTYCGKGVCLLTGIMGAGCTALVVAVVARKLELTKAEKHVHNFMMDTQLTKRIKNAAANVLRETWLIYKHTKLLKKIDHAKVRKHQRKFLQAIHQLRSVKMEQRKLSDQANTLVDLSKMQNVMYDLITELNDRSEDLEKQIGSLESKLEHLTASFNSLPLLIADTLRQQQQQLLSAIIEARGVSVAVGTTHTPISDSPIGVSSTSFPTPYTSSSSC

[2] = molecular target: Intermediate conductance calcium-activated potassium channel protein 4 (Homo sapiens) (UniProt O15554); assay: Inhibition of Kca3.1 channel expressed in HEK293 cells at 30 uM by thallium flux assay; type: cell-based
Chain of Intermediate conductance calcium-activated potassium channel protein 4 (Homo sapiens) (O15554 whole entry): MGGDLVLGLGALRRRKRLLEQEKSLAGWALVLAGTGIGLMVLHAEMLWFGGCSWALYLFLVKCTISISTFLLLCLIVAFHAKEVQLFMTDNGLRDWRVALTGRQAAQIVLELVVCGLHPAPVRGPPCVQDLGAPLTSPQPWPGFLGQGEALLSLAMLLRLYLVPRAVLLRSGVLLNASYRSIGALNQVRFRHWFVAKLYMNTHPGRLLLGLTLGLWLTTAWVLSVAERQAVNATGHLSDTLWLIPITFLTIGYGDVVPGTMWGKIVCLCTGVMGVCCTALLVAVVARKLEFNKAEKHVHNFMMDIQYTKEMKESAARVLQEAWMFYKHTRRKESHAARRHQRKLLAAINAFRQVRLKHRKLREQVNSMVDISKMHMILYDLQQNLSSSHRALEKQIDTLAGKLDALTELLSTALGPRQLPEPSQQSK

[3] = Inhibition of guinea-pig Kca channel; parameters: species or system Cavia porcellus
[4] = Inhibition of Kca channel
[5] = molecular target: T1, Small conductance calcium-activated potassium channel protein 3; assay: Inhibition of Kca2.3 channel expressed in HEK293 cells by thallium flux assay; type: cell-based
[6] = molecular target: T1, Small conductance calcium-activated potassium channel protein 3; assay: Inhibition of Kca2.3 channel expressed in HEK293 cells by electrophysiology assay; type: cell-based
[7] = molecular target: Intermediate conductance calcium-activated potassium channel protein 4 (Homo sapiens) (UniProt O15554); assay: Inhibition of Kca3.1 channel expressed in HEK293 cells by thallium flux assay; type: cell-based
[8] = molecular target: Small conductance calcium-activated potassium channel protein 1 (Homo sapiens, UniProt Q92952); assay: Inhibition of Kca2.1 channel expressed in HEK293 cells by thallium flux assay; type: cell-based
Chain of Small conductance calcium-activated potassium channel protein 1 (Q92952 whole entry): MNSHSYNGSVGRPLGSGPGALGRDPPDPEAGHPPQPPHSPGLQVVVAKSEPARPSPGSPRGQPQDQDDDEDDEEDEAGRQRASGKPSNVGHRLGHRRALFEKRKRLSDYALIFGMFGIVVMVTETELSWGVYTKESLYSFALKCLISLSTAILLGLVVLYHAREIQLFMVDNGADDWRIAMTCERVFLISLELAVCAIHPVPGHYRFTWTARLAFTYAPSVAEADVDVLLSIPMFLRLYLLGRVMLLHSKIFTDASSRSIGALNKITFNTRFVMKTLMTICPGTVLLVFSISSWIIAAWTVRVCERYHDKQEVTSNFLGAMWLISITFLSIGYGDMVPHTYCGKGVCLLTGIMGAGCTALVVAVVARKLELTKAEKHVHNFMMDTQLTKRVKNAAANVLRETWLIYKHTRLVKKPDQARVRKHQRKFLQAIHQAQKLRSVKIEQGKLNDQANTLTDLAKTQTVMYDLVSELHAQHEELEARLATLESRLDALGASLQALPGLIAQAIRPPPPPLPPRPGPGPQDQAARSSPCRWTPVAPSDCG

[9] = molecular target: T2, Small conductance calcium-activated potassium channel protein 2 (Homo sapiens, UniProt Q9H2S1); assay: Inhibition of Kca2.2 channel expressed in HEK293 cells by thallium flux assay; type: cell-based
T2 sequence (Q9H2S1 whole entry): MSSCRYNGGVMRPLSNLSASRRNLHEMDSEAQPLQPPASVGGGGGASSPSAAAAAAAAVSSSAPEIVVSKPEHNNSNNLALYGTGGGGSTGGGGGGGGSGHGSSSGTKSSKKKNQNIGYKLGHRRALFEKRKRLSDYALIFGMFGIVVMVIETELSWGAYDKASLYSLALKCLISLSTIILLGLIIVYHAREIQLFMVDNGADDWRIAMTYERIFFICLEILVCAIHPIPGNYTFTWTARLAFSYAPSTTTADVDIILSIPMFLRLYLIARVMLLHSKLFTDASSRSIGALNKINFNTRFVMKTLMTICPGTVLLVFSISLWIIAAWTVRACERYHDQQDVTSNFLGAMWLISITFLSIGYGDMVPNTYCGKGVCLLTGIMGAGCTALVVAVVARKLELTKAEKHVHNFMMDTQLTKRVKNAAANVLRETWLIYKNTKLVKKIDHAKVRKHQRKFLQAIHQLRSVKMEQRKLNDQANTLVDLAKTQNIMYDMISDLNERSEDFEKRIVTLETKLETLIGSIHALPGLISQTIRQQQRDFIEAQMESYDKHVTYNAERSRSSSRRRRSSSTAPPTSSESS

[10] = molecular target: T2, Small conductance calcium-activated potassium channel protein 2; assay: Displacement of [125I]apamin from Kca2.2 channel expressed in HEK293 cells; type: cell-based
[11] = molecular target: T1, Small conductance calcium-activated potassium channel protein 3; assay: Displacement of [125I]apamin from Kca2.3 channel expressed in HEK293 cells by scintillation proximity assay; type: cell-based

Row | SMILES | inhibition [1] [%] | IC50 [5] [nM] | further results
1 | CC[C@H](C)[C@H](NC(=O)[C@H](CS)NC(=O)[C@H](CCCCN)NC(=O)CNC(=O)[C@H](CC(C)C)NC(=O)[C@H](CC(C)C)NC(=O)CNC(=O)[C@H](CC(C)C)NC(=O)[C@H](CO)NC(=O)[C@H](CCCNC(=N)N)NC(=O)[C@H](CS)NC(=O)[C@H](CO)NC(=O)[C@H](CC(C)C)NC(=O)[C@H](CCC(N)=O)NC(=O)[C@H](CS)NC(=O)[C@H](CCSC)NC(=O)[C@H](CCCNC(=N)N)NC(=O)[C@H](CC(C)C)NC(=O)[C@H](CC(N)=O)NC(=O)[C@H](CS)NC(=O)[C@H](Cc1ccccc1)NC(=O)[C@H](C)N)C(=O)NCC(=O)N[C@@H](CC(=O)O)C(=O)N[C@@H](CCCCN)C(=O)N[C@@H](CS)C(=O)N[C@@H](CCC(=O)O)C(=O)N[C@@H](CS)C(=O)N[C@H](C(=O)N[C@@H](CCCCN)C(=O)N[C@@H](Cc1cnc[nH]1)C(=O)O)C(C)C [Scyllatoxin] (H-AFCNLRMCQLSCRSLGLLGKCIGDKCECVKH-OH) | – | – | Ki [3]: 0.075 nM
2 | c1cc2cc(c1)C[n+]1ccc(c3ccccc31)NCc1ccc(cc1)CNc1cc[n+](c3ccccc13)C2 | – | – | IC50 [4]: 3 nM
3 | c1ccc2c(c1)CCC[C@H]2Nc1nc2ccccc2[nH]1 | – | – | IC50 [4]: 500 nM
4 | Cc1cc(N)c2ccccc2[n+]1CCCCCCCCCC[n+]1c(C)cc(N)c2ccccc21 [DEQUALINIUM CHLORIDE] | – | 1300 | IC50 [4]: 1000 nM; IC50 [6]: 2000 nM
5 | c1ccc(Nc2nc(-c3ccncc3)cs2)nc1 | – | > 30000 | –
6 | FC(F)(F)c1cnc(Nc2nc(-c3ccccn3)cs2)c(Cl)c1 | 8 | > 30000 | –
7 | c1ccc(Nc2nc(-c3ccccc3)cs2)cc1 | 18 | > 30000 | –
8 | c1ccc(Nc2nc(-c3cccnc3)cs2)nc1 | 14 | > 30000 | –

Continued, in another order:

Row | inhibition [1] [%] | IC50 [5] [nM] | SMILES | further results
9 | 9 | – | c1ccc(Nc2nc(-c3ccccn3)cs2)cc1 | –
10 | 98 | – | Cc1ccnc(Nc2nc(-c3ccccn3)cs2)c1 | inhibition [2]: 10%
11 | 24 | > 30000 | c1ccc(-c2csc(Nc3ncccn3)n2)nc1 | –
12 | 14 | > 30000 | c1ccc(-c2csc(Nc3ccncc3)n2)nc1 | –
13 | 45 | – | c1ccc(-c2csc(Nc3cccnc3)n2)nc1 | –
14 | 29 | > 30000 | Ic1ccc(Nc2nc(-c3ccccn3)cs2)nc1 | –
15 | 89 | 543 | c1ccc(Nc2nc(-c3ccccn3)cs2)nc1 | IC50 [6]: 290 nM; Activity [7]: inactive; IC50 [8]: 43 nM; IC50 [9]: 123 nM; IC50 [10]: 543 nM; IC50 [11]: 25 nM
16 | 16 | > 30000 | c1ccc(-c2csc(-c3ccccn3)n2)nc1 | –
17 | 15 | > 30000 | c1ccc(Cc2nc(-c3ccccn3)cs2)nc1 | –
